Legend:
velvetleaf = assay: Test B pre/postemergence velvetleaf; type: in vivo, Abutilon theophrasti
Method in brief: (§1)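 Test chemicals in a non-phytotoxic solvent mixture with surfactant were sprayed preemergence onto planted seeds and postemergence onto plants 2 to 18 cm tall (1- to 4-leaf stage). After twelve to sixteen days in a greenhouse, injury was visually rated against untreated controls from 0 (no effect) to 10 (complete control).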

wheat = assay: Test B pre/postemergence wheat; type: in vivo, Triticum aestivum
Method in brief: as §1

cocklebur = assay: Test B pre/postemergence cocklebur; type: in vivo, Xanthium strumarium
Method in brief: as §1

blackgrass = assay: Test B pre/postemergence blackgrass; type: in vivo, Alopecurus myosuroides
Method in brief: as §1

rape = assay: Test B pre/postemergence rape; type: in vivo, Brassica napus
Method in brief: as §1

sugar beet = assay: Test B pre/postemergence sugar beet; type: in vivo, Beta vulgaris
Method in brief: as §1

surinam grass = assay: Test B pre/postemergence surinam grass; type: in vivo, Brachiaria decumbens
Method in brief: as §1

duck salad = assay: Test B flood test duck salad; type: in vivo, Heteranthera limosa
Method in brief: (§2)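 Flood test on plants grown to the 2-leaf stage; treated plants kept in greenhouse twelve to sixteen days, then visually rated against controls on a 0 (no effect) to 10 (complete control) scale.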

wild oat = assay: Test B pre/postemergence wild oat; type: in vivo, Avena fatua
Method in brief: as §1

corn = assay: Test B pre/postemergence corn; type: in vivo, Zea mays
Method in brief: as §1

pigweed = assay: Test B pre/postemergence pigweed; type: in vivo, Amaranthus retroflexus
Method in brief: as §1

soybean = assay: Test B pre/postemergence soybean; type: in vivo, Glycine max
Method in brief: as §1

morningglory = assay: Test B pre/postemergence morningglory; type: in vivo, Ipomoea hederacea
Method in brief: as §1

rice = assay: Test B flood test rice; type: in vivo, Oryza sativa
Method in brief: as §2

giant foxtail = assay: Test B pre/postemergence giant foxtail; type: in vivo, Setaria faberii
Method in brief: as §1

smallflower flatsedge = assay: Test B flood test smallflower flatsedge; type: in vivo, Cyperus difformis
Method in brief: as §2

[1] = Postemergence, Rate 125 g/ha, scale of 0 to 10 where 0 is no effect and 10 is complete control
[2] = Postemergence, Rate 250 g/ha, scale of 0 to 10, 0 is no effect, 10 is complete control
[3] = Postemergence, Rate 1000 g/ha, scale 0 to 10 (0 no effect, 10 complete control)
[4] = Preemergence, Rate 125 g/ha, scale of 0 to 10 where 0 is no effect and 10 is complete control
[5] = Preemergence, Rate 250 g/ha, scale 0 to 10 (0 no effect, 10 complete control)
[6] = Preemergence, Rate 500 g/ha, scale of 0 to 10 where 0 is no effect and 10 is complete control
[7] = Rate 1000 g/ha, Preemergence, scale 0 to 10 (0 no effect, 10 complete control)
[8] = Postemergence, Rate 500 g/ha, scale of 0 to 10 where 0 is no effect and 10 is complete control
[9] = Pre-emergence, Rate 1000 g/ha, scale 0 to 10 (0 no effect, 10 complete control)
[10] = Rate 125 g/ha, under heading Pre-emergence, flood test species, visual evaluation after twelve to sixteen days
[11] = Rate 250 g/ha, Pre-emergence (flood test species), scale 0 to 10, 0 is no effect, 10 is complete control
[12] = Rate 500 g/ha, Pre-emergence section of Table B, 0 to 10 scale (0 no effect, 10 complete control)

COC(=O)C(C)n1c(=O)on(C(=O)N(c2ccc(Cl)cc2)C(C)C)c1=O (stereo not shown) [Compound 623]
Plant response rating, Velvetleaf (velvetleaf; [1]): 0
Velvetleaf plant response rating (velvetleaf; [2]): 0
Velvetleaf plant response rating (velvetleaf; [3]): 2
Velvetleaf plant response rating (velvetleaf; [4]): 0
Plant response rating, Velvetleaf (velvetleaf; [5]): 0
Plant response rating, Velvetleaf (velvetleaf; [6]): 0
Plant response rating, Velvetleaf (velvetleaf; [7]): 0
Plant response rating, Wheat (wheat; [1]): 0
Wheat plant response rating (wheat; [2]): 1
Wheat plant response rating (wheat; [3]): 1
Wheat plant response rating (wheat; [4]): 0
Plant response rating, Wheat (wheat; [5]): 0
Plant response rating, Wheat (wheat; [6]): 0
Plant response rating, Wheat (wheat; [7]): 3
Plant response rating, Cocklebur (cocklebur; [1]): 0
Cocklebur plant response rating (cocklebur; [2]): 0
Plant response rating, Cocklebur (cocklebur; [8]): 0
Cocklebur plant response rating (cocklebur; [3]): 0
Cocklebur plant response rating (cocklebur; [4]): 0
Plant response rating, Cocklebur (cocklebur; [5]): 0
Plant response rating, Cocklebur (cocklebur; [6]): 0
Plant response rating, Cocklebur (cocklebur; [7]): 0
Plant response rating, Blackgrass (blackgrass; [1]): 3
Blackgrass plant response rating (blackgrass; [2]): 4
Plant response rating, Blackgrass (blackgrass; [8]): 6
Blackgrass plant response rating (blackgrass; [3]): 7
Blackgrass plant response rating (blackgrass; [4]): 0
Plant response rating, Blackgrass (blackgrass; [5]): 0
Plant response rating, Blackgrass (blackgrass; [7]): 2
Plant response rating, Rape (rape; [1]): 0
Rape plant response rating (rape; [2]): 0
Plant response rating, Rape (rape; [8]): 0
Rape plant response rating (rape; [3]): 0
Rape plant response rating (rape; [4]): 0
Plant response rating, Rape (rape; [5]): 0
Plant response rating, Rape (rape; [6]): 2
Plant response rating, Rape (rape; [7]): 2
Plant response rating, Sugarbeets (sugar beet; [1]): 0
Sugarbeets plant response rating (sugar beet; [2]): 0
Sugarbeets plant response rating (sugar beet; [3]): 0
Sugarbeets plant response rating (sugar beet; [4]): 0
Plant response rating, Sugarbeets (sugar beet; [5]): 0
Plant response rating, Sugarbeets (sugar beet; [6]): 2
Plant response rating, Sugarbeets (sugar beet; [7]): 7
Plant response rating, B. signalgrass (surinam grass; [1]): 0
B. signalgrass plant response rating (surinam grass; [2]): 0
Plant response rating, B. signalgrass (surinam grass; [8]): 0
B. signalgrass plant response rating (surinam grass; [3]): 0
B. signalgrass plant response rating (surinam grass; [4]): 0
Plant response rating, B. signalgrass (surinam grass; [5]): 0
Plant response rating, B. signalgrass (surinam grass; [6]): 2
Plant response rating, B. signalgrass (surinam grass; [7]): 4
Ducksalad plant response rating (duck salad; [9]): 0
Ducksalad plant response rating (0 to 10 scale, 0 is no effect, 10 is complete control) (duck salad; [10]): 0
Ducksalad plant response rating (duck salad; [11]): 0
Ducksalad plant response rating (duck salad; [12]): 0
Plant response rating, Wild oats (wild oat; [1]): 0
Wild oats plant response rating (wild oat; [2]): 0
Wild oats plant response rating (wild oat; [3]): 2
Wild oats plant response rating (wild oat; [4]): 0
Plant response rating, Wild oats (wild oat; [5]): 0
Plant response rating, Wild oats (wild oat; [6]): 2
Plant response rating, Wild oats (wild oat; [7]): 2
Plant response rating, Corn (corn; [1]): 0
Corn plant response rating (corn; [2]): 0
Plant response rating, Corn (corn; [8]): 0
Corn plant response rating (corn; [3]): 0
Corn plant response rating (corn; [4]): 0
Plant response rating, Corn (corn; [5]): 0
Plant response rating, Corn (corn; [6]): 0
Plant response rating, Corn (corn; [7]): 0
Plant response rating, Redroot pigweed (pigweed; [1]): 0
Redroot pigweed plant response rating (pigweed; [2]): 0
Redroot pigweed plant response rating (pigweed; [3]): 5
Redroot pigweed plant response rating (pigweed; [4]): 0
Plant response rating, Redroot pigweed (pigweed; [5]): 0
Plant response rating, Redroot pigweed (pigweed; [6]): 0
Plant response rating, Redroot pigweed (pigweed; [7]): 5
Plant response rating, Soybean (soybean; [1]): 0
Soybean plant response rating (soybean; [2]): 0
Soybean plant response rating (soybean; [3]): 3
Soybean plant response rating (soybean; [4]): 0
Plant response rating, Soybean (soybean; [5]): 0
Plant response rating, Soybean (soybean; [6]): 0
Plant response rating, Soybean (soybean; [7]): 0
Plant response rating, Morningglory (morningglory; [1]): 6
Morningglory plant response rating (morningglory; [2]): 8
Plant response rating, Morningglory (morningglory; [8]): 10
Morningglory plant response rating (morningglory; [3]): 10
Morningglory plant response rating (morningglory; [4]): 0
Plant response rating, Morningglory (morningglory; [5]): 0
Plant response rating, Morningglory (morningglory; [6]): 0
Plant response rating, Morningglory (morningglory; [7]): 0
Rice plant response rating (rice; [9]): 0
Rice plant response rating (0 to 10 scale, 0 is no effect, 10 is complete control) (rice; [10]): 0
Rice plant response rating (rice; [11]): 0
Rice plant response rating (rice; [12]): 0
Plant response rating, Giant foxtail (giant foxtail; [1]): 0
Giant foxtail plant response rating (giant foxtail; [2]): 0
Plant response rating, Giant foxtail (giant foxtail; [8]): 0
Giant foxtail plant response rating (giant foxtail; [3]): 2
Giant foxtail plant response rating (giant foxtail; [4]): 7
Plant response rating, Giant foxtail (giant foxtail; [5]): 8
Plant response rating, Giant foxtail (giant foxtail; [6]): 9
Plant response rating, Giant foxtail (giant foxtail; [7]): 9
S. Flatsedge plant response rating (smallflower flatsedge; [9]): 0
S. Flatsedge plant response rating (0 to 10 scale, 0 is no effect, 10 is complete control) (smallflower flatsedge; [10]): 0
S. Flatsedge plant response rating (smallflower flatsedge; [11]): 0
S. Flatsedge plant response rating (smallflower flatsedge; [12]): 0

From US6737383B1, “Herbicidal oxadiazolidines” (priority 1999, dated 2004)
